Measurements as given in patent publication US9533983B2, “Antiplatelet agent” (Mitsubishi Tanabe Pharma Corporation, priority 2009, dated 2017).

Key:
Assay type in all cases: cell-based
Settings in all cases: Cavia porcellus, guinea pig PRP
[1] = test system: Collagen-Induced Platelet Aggregation; test: Platelet aggregation inhibitory activity: collagen-induced platelet aggregation in platelet rich plasma
Method: (§1) A blood of a guinea pig was sampled by using a 1/10 volume of a 3.8% sodium citrate as a platelet aggregation inhibitor, and a platelet rich plasma (PRP) was separated by centrifuging the blood sample at 1100 rpm for 10 min. After fractionating the PRP in the upper layer, the lower layer was centrifuged at 3000 rpm for 10 min to fractionate the platelet poor plasma (PPP). To 100 μL of PRP, a 1 μL solution of each compound was added, and after still standing at 37° C. for 1 min, the mixture was stirred at 37° C. for 1 min by a stirrer. Then, 11 μL of collagen, ristocetin, or ADP was added thereto to induce the platelet aggregation. The platelet aggregation ability was measured by using the mCM hematolaser 313M (L-M-S Inc.). Based on the assumption that a light transmittance of PPP corresponds to a 100% coagulation value, an aggregation rate at each concentration of the compound was determined, then, an IC50 value was calculated therefrom.
[Platelet Aggregation Inhibitory Activities: Collagen-Induced Platelet Aggregation]

[2] = test system: Ristocetin-Induced Platelet Aggregation; test: Platelet aggregation inhibitory activity: ristocetin-induced platelet aggregation in platelet rich plasma
Method: as §1
[Platelet Aggregation Inhibitory Activities: Ristocetin-Induced Platelet Aggregation]

[3] = test system: ADP-Induced Platelet Aggregation; test: Platelet aggregation inhibitory activity: ADP-induced platelet aggregation in platelet rich plasma
Method: as §1
[Platelet Aggregation Inhibitory Activities: ADP-Induced Platelet Aggregation]

Compound	IC50 [1] [nM]	IC50 [2] [nM]	IC50 [3] [nM]
COc1ccc(-n2c(-c3ccccn3)nc3cc(C(F)(F)F)ccc32)nn1 [Example 1, 1-(6-methoxypyridazin-3-yl)-2-pyridin-2-yl-5-(trifluoromethyl)-1H-benzimidazole]	33	100	> 10000
COc1ccc(-n2c(-c3ccccn3)nc3cc(OC(F)(F)F)ccc32)nn1 [Example 3, 1-(6-methoxypyridazin-3-yl)-2-pyridin-2-yl-5-(trifluoromethoxy)-1H-benzimidazole]	32	32	> 10000
COc1ccc(-n2c(-c3ccc(F)cn3)nc3cc(C(F)(F)F)cnc32)cn1 [Example 4, 2-(5-fluoropyridin-2-yl)-3-(6-methoxypyridin-3-yl)-6-(trifluoromethyl)-3H-imidazo[4,5-b]pyridine]	21	24	> 10000
COc1ccc(-n2c(-c3ccc(C#N)cn3)nc3cc(C(F)(F)F)ccc32)nn1 [Example 7, 6-[1-(6-methoxypyridazin-3-yl)-5-(trifluoromethyl)-1H-benzimidazole-2-yl]nicotinonitrile]	25	60	> 10000
COc1ccc(-n2c(-c3ccccn3)nc3cc(C(F)(F)F)ccc32)cn1 [Example 14, 1-(6-methoxypyridin-3-yl)-2-pyridin-2-yl-5-(trifluoromethyl)-1H-benzimidazole]	200	–	> 10000
COc1ccc(-n2c(-c3ccc(Cl)cn3)nc3cc(C(F)(F)F)ccc32)cn1 [Example 36, 2-(5-chloropyridin-2-yl)-1-(6-methoxypyridin-3-yl)-5-(trifluoromethyl)-1H-benzimidazole]	49	180	> 10000
COc1ccc(-n2c(-c3ccc(F)cn3)nc3cc(OC(F)(F)F)ccc32)nn1 [Example 71, 2-(5-fluoropyridin-2-yl)-1-(6-methoxypyridazin-3-yl)-5-(trifluoromethoxy)-1H-benzimidazole]	78	43	> 10000
COc1ccc(-n2c(-c3cocn3)nc3cc(C(F)(F)F)ccc32)nn1 [Example 88, 1-(6-methoxypyridazin-3-yl)-2-(1,3-oxazol-4-yl)-5-(trifluoromethyl)-1H-benzimidazole]	120	80	> 10000
COc1cnc(-n2c(-c3cn(C)cn3)nc3cc(C(F)(F)F)cnc32)cn1 [Example 169, 3-(5-methoxypyrazine-2-yl)-2-(1-methyl-1H-imidazol-4-yl)-6-(trifluoromethyl)-3H-imidazo[4,5-b]pyridine]	123	148	> 10000
COc1ccc(-n2c(-c3ccc(F)cn3)nc3cc(OC(F)(F)F)cnc32)cn1 [Example 177, 2-(5-fluoropyridin-2-yl)-3-(6-methoxypyridin-3-yl)-6-(trifluoromethoxy)-3H-imidazo[4,5-b]pyridine]	21	11	> 10000
COc1ccc(-n2c(-c3ccc(F)cn3)nc3cc(OC(F)F)cnc32)cn1 [Example 178]	94	47	> 10000
COc1ccc(-c2c(-c3ccccn3)nn3cc(C(F)(F)F)cnc23)cn1 [Example 180, 3-(6-methoxypyridin-3-yl)-2-pyridin-2-yl-6-(trifluoromethyl)pyrazolo[1,5-a]pyrimidine]	55	14	> 10000
COc1ccc(-n2c(-c3ccccn3)cc3cc(C(F)(F)F)ccc32)cn1 [Example 182, 1-(6-methoxypyridin-3-yl)-2-pyridin-2-yl-5-(trifluoromethyl)-1H-indole]	116	–	> 10000
COc1ccc(-c2c3ccc(C(F)(F)F)cc3nn2-c2ccc(F)cn2)cn1 [Example 185, 2-(5-fluoropyridin-2-yl)-3-(6-methoxypyridin-3-yl)-6-(trifluoromethyl)-2H-indazole]	70	–	> 10000
COc1ccc(-c2c3ncc(C(F)(F)F)cc3nn2-c2ccccn2)cn1 [Example 186, 3-(6-methoxypyridin-3-yl)-2-pyridin-2-yl-6-(trifluoromethyl)-2H-pyrazolo[4,3-b]pyridine]	16	9	> 10000

Continued by falling IC50 [1], values first:

IC50 [1] [nM]	IC50 [2] [nM]	IC50 [3] [nM]	Compound
330	170	> 10000	COc1ccc(-n2c(-c3ccccn3)nc3cc(OC(F)(F)F)ccc32)cn1 [Example 40, 1-(6-methoxypyridin-3-yl)-2-pyridin-2-yl-5-(trifluoromethoxy)-1H-benzimidazole]
163	163	> 10000	COc1ccc(-n2c(-c3cn(C)nn3)nc3cc(C(F)(F)F)cnc32)cn1 [Example 160, 3-(6-methoxypyridin-3-yl)-2-(1-methyl-1H-1,2,3-triazol-4-yl)-6-(trifluoromethyl)-3H-imidazo[4,5-b]pyridine]
157	135	> 10000	COc1ccc(-n2c(-c3cn(C)nn3)nc3cc(OC(F)(F)F)ccc32)nn1 [Example 167, 1-(6-methoxypyridazin-3-yl)-2-(1-methyl-1H-1,2,3-triazol-4-yl)-5-(trifluoromethoxy)-1H-benzimidazole]
84	87	–	COc1ccc(-n2c(-c3ccccn3)nc3cc(OCC(C)C)cnc32)cn1 [Example 174, 6-isobuthoxy-3-(6-methoxypyridin-3-yl)-2-pyridin-2-yl-3H-imidazo[4,5-b]pyridine]
75	75	–	COc1ccc(-n2c(-c3ccccn3)nc3cc(OCC(F)(F)F)cnc32)cn1 [Example 175, 3-(6-methoxypyridin-3-yl)-2-pyridin-2-yl-6-(2,2,2-trifluoroethoxy)-3H-imidazo[4,5-b]pyridine]
75	34	> 10000	COc1ccc(-c2c(-c3ccccn3)nc3cc(C(F)(F)F)cnn23)cn1 [Example 179, 3-(6-methoxypyridin-3-yl)-2-pyridin-2-yl-7-(trifluoromethyl)imidazo[1,2-b]pyridazine]
60	27	> 10000	COc1ccc(-c2c(-c3ccc(F)cn3)nn3cc(C(F)(F)F)cnc23)cn1 [Example 192, 2-(5-fluoropyridin-2-yl)-3-(6-methoxypyridin-3-yl)-6-(trifluoromethyl)pyrazolo[1,5-a]pyrimidine]
55	63	–	COc1ccc(-n2c(-c3ccccn3)nc3cc(OC(C)C(F)(F)F)cnc32)cn1 (centres unmarked) [Example 176, 3-(6-methoxypyridin-3-yl)-2-pyridin-2-yl-6-(2,2,2-trifluoro-1-methylethoxy)-3H-imidazo[4,5-b]pyridine]
54	41	> 10000	COc1ccc(-n2c(-c3ccn(C)n3)nc3cc(C(F)(F)F)ccc32)nn1 [Example 52, 1-(6-methoxypyridazin-3-yl)-2-(1-methyl-1H-pyrazol-3-yl)-5-(trifluoromethyl)-1H-benzimidazole]
42	41	> 10000	COc1ccc(-n2c(-c3ccccn3)nc3cc(C(F)(F)F)cnc32)cn1 [Example 13, 3-(6-methoxypyridin-3-yl)-2-pyridin-2-yl-6-(trifluoromethyl)-3H-imidazo[4,5-b]pyridine]
33	27	> 10000	COc1ccc(-c2c(-c3ccc(F)cn3)nc3cc(C(F)(F)F)cnn23)cn1 [Example 181, 2-(5-fluoropyridin-2-yl)-3-(6-methoxypyridin-3-yl)-7-(trifluoromethyl)imidazo[1,2-b]pyridazine]
26	13	> 10000	COc1ccc(-n2c(-c3ccccn3)nc3cc(OC(F)(F)F)cnc32)cn1 [Example 147, 3-(6-methoxypyridin-3-yl)-2-pyridin-2-yl-6-(trifluoromethoxy)-3H-imidazo[4,5-b]pyridine]
24	9	> 10000	COc1ccc(-n2c(-c3ccccn3)cc3cc(C(F)(F)F)cnc32)cn1 [Example 183, 1-(6-methoxypyridin-3-yl)-2-pyridin-2-yl-5-(trifluoromethyl)-1H-pyrrolo[2,3-b]pyridine]
17	27	> 10000	COc1ccc(-n2c(-c3ccc(F)cn3)nc3cc(C(F)(F)F)ccc32)nn1 [Example 62, 2-(5-fluoropyridin-2-yl)-1-(6-methoxypyridazin-3-yl)-5-(trifluoromethyl)-1H-benzimidazole]
17	–	> 10000	COc1ccc(-n2c(-c3ccc(F)cn3)cc3cc(C(F)(F)F)cnc32)cn1 [Example 184, 2-(5-fluoropyridin-2-yl)-1-(6-methoxypyridin-3-yl)-5-(trifluoromethyl)-1H-pyrrolo[2,3-b]pyridine]
